Laboratory results taken from patent publication US20100189695A1, “IRAK-1 AS REGULATOR OF DISEASES AND DISORDERS” (priority 2008, published 2010).
No end group written: not given here.

What was measured:
[1] = test system: ABCA1; assay: ABCA1 induction by ATRA in BMDMs, real time RT-PCR; format: cell-based, mouse; conditions: IRAK1−/− vs WT BMDMs, 50 nM ATRA, 6 h
Method: WT and IRAK1^−/− BMDM cells were either untreated or treated with ATRA (50 nM) followed by Western blot analysis of cell extracts using ABCA1 specific antibodies. Antibodies against β-actin were used as the internal loading control. Panel B: the band intensities were quantitated using the Fujifilm Multi Gauge software and the fold induction is depicted after normalization against β-actin levels. Panel C: IRAK-1 expression was knocked-down using IRAK-1 specific siRNA (IRAK1). Wild type macrophages treated with either control siRNA or IRAK-1 specific siRNA were stimulated with 50 nM ATRA for 6 hrs. The levels of ABCA1 protein were determined by Western blot using anti-ABCA1 antibody. The levels of beta-actin were probed and served as equal loading controls. The levels of IRAK-1 were probed to make efficient knock-down with the IRAK-1 specific siRNA treatment. […] The cells were […] either untreated or treated with 50 nM ATRA for 6 h and the expression of ABCA1 and ABCG1 transcripts were measured by real time RT-PCR assays and standardized against GAPDH levels.

[2] = test system: RARα; assay: RARα levels in BMDMs after LPS, Western blot and real time RT-PCR; format: cell-based, mouse; conditions: for nuclear RARα protein level: 100 ng/ml LPS
Method: To determine if IRAK-1 is involved in the nuclear translocation of RARα, the levels of RARα were determined in wild type and IRAK-1 deficient macrophages in the presence and absence of LPS (FIG. 9). […] When experiments are performed in a IRAK-1 deficient background, RARα is not suppressed (lanes 5-8). As expected, when a wild type background is used, IRAK-1 suppression can be seen (lanes 1 and 2).
WT and IRAK-1^−/−. BMDMs were treated with 100 ng/ml LPS for 2 h followed by nuclear protein extraction. The samples were analyzed by immunoblotting using the indicated antibodies. LaminB was used as the loading control. Panel B: the BMDMs derived from WT and IRAK-1^−/− mice were treated with LPS for 2 h followed by RNA extraction. The resulting cDNAs were used to detect RARα transcript levels by real time RT-PCR and standardized against GAPDH levels. Panel C: WT BMDMs were treated with 100 ng/ml LPS for 2 h followed by whole cell protein extraction. The samples were resolved by SDS-PAGE followed by immunoblotting with anti-RARα antibodies. Panel D: BMDM cells derived from WT mice were either untreated or treated with Leptomycin B (LepB) alone or in the presence of LPS. After 2 h incubation, nuclear lysates were prepared and subjected to SDS-PAGE followed by Western blot analysis with RARα specific antibodies. The blots were also probed with LaminB-specific antibodies as a loading control. ns=non-specific.

[3] = test system: Tau; assay: Tau phosphorylation (PHF-Tau) after BLP (Pam3CSK4) in bone marrow derived macrophages, Western blot; format: cell-based, mouse
Method: Because Tau phosphorylation is increased in aged human brains and contributes to the pathogenesis of various neurological diseases, such as Alzheimer's and Parkinson's diseases, studies were performed to ask whether the increased levels of full-length IRAK-1 can contribute to Tau phosphorylation. In order to answer this question, a transgenic mouse model known in the art was used. According to this study, either wild type or IRAK-1 deficient bone marrow derived macrophages were treated with BLP (Pam3CSK4) for various times, as indicated in FIGS. 4 and 5. The levels of phosphorylated Tau (PHF-Tau) were detected through Western Blot using anti-phosphorylated Tau antibody.

[4] = test system: MCP-1; assay: MCP-1 message and protein after LPS in macrophages, real-time PCR and ELISA; format: cell-based; conditions: wild-type cells, LPS stimulation
Method: To investigate the possible role of IRAK-1 in control of MCP-1 expression, experiments were performed to assess the level of MCP-1 produced via LPS stimulation. It was postulated that IRAK-1 regulates the expression of MCP-1 through interaction of IRAK-1 with C/EBPδ. To assess this possible interaction, MCP-1 mRNA levels were determined in both wild-type cells and IRAK^−/− cells in the presence and absence of LPS. The results are depicted graphically in FIG. 17.
As shown in the figure, the levels of MCP-1 message (left panel) and protein (right panel) in wild type and IRAK-1 deficient macrophages following LPS stimulation was measured by real-time PCR analyses (left panel) and ELISA (right panel). […] The data fully support a role for IRAK-1 in control of expression of MCP-1 transcription through control of C/EBPδ.

[5] = test system: PGC1α; assay: PGC1α protein after LPS, Western blot; format: cell-based; conditions: LPS vs Control
Method: The ability of IRAK-1 to regulate the transcription factor PGC1α was determined in this set of experiments. PGC1α was detected by Western blot analysis in either wild type or IRAK-1 deficient cells in the presence or absence of LPS (FIG. 15).

[6] = test system: Rac1; assay: Rac1 activity by PBD pull down assay after LPS stimulation; format: cell-based, mouse; conditions: LPS 100 ng/ml, 5 min
Method: (§1) To determine if IRAK-1 is required for LPS-induced activation of Rac1, either wild type or IRAK-1 deficient macrophages were treated with LPS (100 ng/ml).
Rac1 activity was determined using the PBD pull down assay following LPS stimulation (100 ng/ml) for 5 min in WT and IRAK1^−/− BMDM cells followed by immunoblotting with an anti-Rac1 antibody. […] The bar graphs are densitometric analyses of the active Rac1 specific bands from three independent experiments.

[7] = test system: NOX-1; assay: NOX-1 expression after LPS in BMDM cells; format: cell-based, mouse
Method: To determine if IRAK-1 was involved in the regulation of inflammatory mediator NOX-1, the levels of NOX-1 were determined in wild type and IRAK-1 deficient macrophages in the presence and absence of LPS (FIG. 16).
Panel A: Effect of LPS on NOX-1 expression in WT and IRAK1^−/− BMDM cells. The cells were stimulated with LPS (100 ng/ml) for 2 h. After stimulation, total RNA was prepared using Trizol reagent followed by reverse transcription and the mRNA levels of NOX-1 were analyzed using real-time RT-PCR. Each data point represents the mean+/−standard deviation of at least three independent experiments. *P<0.05, compared with control. Panel B: The protein levels of NOX-1 were analyzed after LPS stimulation in WT and IRAK1^−/− BMDM cells by Western blot using an anti-NOX-1 antibody. The same blots were probed with β-actin as the loading control. Panel C: Chromatin immunoprecipitation analyses were performed to determine LPS-inducible recruitment of C/EBPδ to the promoter region of NOX-1. In contrast, LPS cannot induce C/EBPδ binding to the promoter region of NOX-1 in IRAK-1 deficient macrophages.

[8] = test system: BMDM cells; assay: Intracellular ROS by DCFDA staining after LPS stimulation; format: cell-based, mouse; conditions: wild type macrophages, LPS 100 ng/ml, 15 minutes or 16 hours
Method: as §1
Intracellular ROS levels were measured by DCFDA staining using fluorescence microscope after LPS (100 ng/ml) stimulation in WT and IRAK1^−/− BMDM cells for 15 min.

[9] = test system: PPARα; assay: PPARα protein after LPS, Western blot; format: cell-based; conditions: IRAK-1 deficient cells, LPS vs Control
Excerpt: It was of interest to determine if the transcription factor PPARα is also regulated by IRAK-1.

[10] = test system: LXRα; assay: LXRα protein after LPS, Western blot; format: cell-based
Excerpt: The transcriptional factor LXRα was also thought to be a potential target of IRAK-1 suppression. FIG. 14 illustrates Western blot analysis of the LXRα protein in the presence and absence of IRAK-1. Suppression of LXRα can be seen in the wild type cells (lanes 1 and 2).

[11] = test system: C/EBPδ; assay: LPS-induced C/EBPδ expression, Western blot in macrophages; format: cell-based; conditions: LPS two hours
Method: To determine if IRAK-1 is involved in LPS-induced C/EBPδ expression, either wild type or IRAK-1 deficient macrophages were treated with LPS for two hours. […] Either β-actin or lamin-B proteins were used as controls.

Compound: CC1=C(/C=C/C(C)=C/C=C/C(C)=C/C(=O)O)C(C)(C)CCC1 [ATRA, all trans retinoic acid]
- ABCA1 mRNA induction [1]: higher induction of ABCA1 mRNA

Compound: CCC(=C/[C@H](C)C/C=C/C(C)=C/[C@@H](C)C(=O)[C@@H](C)[C@H](O)[C@@H](C)C/C(C)=C/C(=O)O)/C=C/[C@@H]1OC(=O)C=C[C@@H]1C [LepB, Leptomycin B]
- LPS-induced suppression of nuclear RARα in the presence of LepB ([2]; wild type BMDM, LepB with LPS, 2 h): RARα suppression by IRAK-1 is not seen

Compound: Triacylated Cys-Ser-Lys-Lys-Lys-Lys (CSKKKK; not fully specified (residue 1, N-terminus); printed as Triacylated Cys-Ser-Lys-Lys-Lys-Lys) [Pam3CSK4]
- Tau phosphorylation ([3]; IRAK-1 deficient bone marrow derived macrophages): Tau phosphorylation is ablated
- Tau phosphorylation ([3]; wild type bone marrow derived macrophages): led to increased Tau phosphorylation

Compound: lipopolysaccharide [LPS]
- nuclear RARα protein level ([2]; IRAK-1 deficient BMDMs, 2 h): no significant suppression
- nuclear RARα protein level ([2]; wild type BMDMs, 2 h): suppression of RARα protein
- RARα relative transcript levels ([2]; wild type and IRAK-1 deficient BMDMs, LPS 2 h, standardized against GAPDH): approximately equal
- MCP-1 transcription and protein expression [4]: significant increase in induction of MCP-1 transcription and protein expression
- PGC1α protein ([5]; IRAK-1 deficient cells): did not show the LPS-induced suppression
- PGC1α protein ([5]; wild type cells): much less of the PGC1α protein
- activation of Rac1 ([6]; IRAK-1 deficient macrophages): No induction was seen
- relative Rac1 activity ([6]; wild type macrophages): significantly higher
- NOX-1 protein ([7]; IRAK-1 deficient cells): Induction was seen to a lesser extent
- NOX-1 protein ([7]; wild type macrophage cells): LPS-induction of NOX-1
- reactive oxygen species levels [8]: induced significantly higher levels of reactive oxygen species
- PPARα protein [9]: PPARα was seen in both the Control and LPS samples
- amount of LXRα in the presence or absence of LPS ([10]; IRAK-1 deficient cells): approximately the same
- amount of LXRα without LPS induction relative to LPS-induced cells ([10]; wild type cells): four times
- C/EBPδ expression ([11]; IRAK-1 deficient macrophages): no induction
- C/EBPδ expression ([11]; wild type macrophages): induction
